Results on six compounds are retold here after PubChem BioAssay AID1259407 (Chemical Carcinogenesis Research Information System (CCRIS), 2018).

Each structure is given as a SMILES string. Activity calls are given as the source filed them. How the calls were made is not given here.

The data set has as its system CCRIS mutagenicity, Ames/micronucleus/aberration tests. Nature of the data set: CCRIS mutagenicity studies.

Take `C[C@@H]1O[C@@H](OC[C@H]2O[C@@H](Oc3c(-c4ccc(O)c(O)c4)oc4cc(O)cc(O)c4c3=O)[C@H](O)[C@@H](O)[C@@H]2O)[C@H](O)[C@H](O)[C@H]1O`: the mutagenic call (Test System: Ames Salmonella typhimurium, Strain/Indicator: TA98, Metabolic Activation: None, Method: Standard plate) is “inactive; negative” and the mutagenic call (Test System: Ames Salmonella typhimurium, Strain/Indicator: TA98, Metabolic Activation: Rat, Liver, S-9, Aroclor 1254, Method: Standard Plate) was “inactive; negative”.
Turning to `O=C1CC2=C(CCCC2)c2c1c1c(c3c2=CC=C3)C=CC=1`, for the setting “Test System: AMES SALMONELLA TYPHIMURIUM, Strain/Indicator: TA100, Metabolic Activation: RAT, LIVER, S-9, AROCLOR 1254, Method: STANDARD PLATE”, the mutagenic call is “inactive; negative”.
Turning to `c1ccc2c(c1)cc1ccc3cccc4c5ccccc5c2c1c34`, the mutagenic call is, setting by setting: (End Point: In vitro micronucleus, Test System: V79MZ Chinese hamster fibroblasts, Metabolic Activation: None) “inactive; negative”; (End Point: In vitro micronucleus, Test System: V79MZ-h1A1 Chinese hamster fibroblasts (expressing human CYP1A1), Metabolic Activation: None) “active; positive”; (End Point: In vitro micronucleus, Test System: V79MZ-h1B1 Chinese hamster fibroblasts (expressing human CYP1B1), Metabolic Activation: None) “active; positive”; (Test System: AMES SALMONELLA TYPHIMURIUM, Strain/Indicator: TA98, Metabolic Activation: RAT, LIVER, S-9, AROCLOR 1254, Method: PREINCUBATION) “active; positive”; (Test System: AMES SALMONELLA TYPHIMURIUM, Strain/Indicator: TA100, Metabolic Activation: RAT, LIVER, S-9, AROCLOR 1254, Method: PREINCUBATION) “active; positive”; (Test System: CHINESE HAMSTER V-79, Strain/Indicator: V-79 (HPRT)/6-THIOGUANINE, Metabolic Activation: HUMAN MAMMARY CARCINOMA MCF-7 CELLS) “active; positive”.
Consider `c1ccc2c(c1)ccc1nc3c4c(c5ccccc5c3cc12)O4`, for which the mutagenic call (Test System: AMES SALMONELLA TYPHIMURIUM, Strain/Indicator: TA100, Metabolic Activation: GUINEA PIG, LIVER, S-9, 3-METHYLCHOLANTHRENE, Method: STANDARD PLATE) is “active; positive”.
As for `CC(C)CC(=O)N=c1sn(C(=O)CC(C)C)c2ccc([N+](=O)[O-])cc12`, for the setting “Test System: AMES SALMONELLA TYPHIMURIUM, Strain/Indicator: TA100, Metabolic Activation: S-9, Method: STANDARD PLATE”, the mutagenic call was “active; positive”.
For `NCCNC(=O)c1ccc(Cl)cn1`, the mutagenic call is “inactive; negative” (Test System: AMES SALMONELLA TYPHIMURIUM, Strain/Indicator: TA97, Metabolic Activation: NONE, Method: PREINCUBATION); “inactive; negative” (Test System: AMES SALMONELLA TYPHIMURIUM, Strain/Indicator: TA97, Metabolic Activation: NONE, Method: STANDARD PLATE); “inactive; negative” (Test System: AMES SALMONELLA TYPHIMURIUM, Strain/Indicator: TA97, Metabolic Activation: RAT, LIVER, S-9, PHENOBARBITAL AND BETA-NAPHTHOFLAVONE, Method: PREINCUBATION); “inactive; negative” (Test System: AMES SALMONELLA TYPHIMURIUM, Strain/Indicator: TA97, Metabolic Activation: RAT, LIVER, S-9, PHENOBARBITAL AND BETA-NAPHTHOFLAVONE, Method: STANDARD PLATE); “inactive; negative” (Test System: AMES SALMONELLA TYPHIMURIUM, Strain/Indicator: TA98, Metabolic Activation: NONE, Method: PREINCUBATION); “inactive; negative” (Test System: AMES SALMONELLA TYPHIMURIUM, Strain/Indicator: TA98, Metabolic Activation: NONE, Method: STANDARD PLATE). Also, the mutagenic call runs as follows: (Test System: AMES SALMONELLA TYPHIMURIUM, Strain/Indicator: TA98, Metabolic Activation: RAT, LIVER, S-9, PHENOBARBITAL AND BETA-NAPHTHOFLAVONE, Method: PREINCUBATION) “inactive; negative”; (Test System: AMES SALMONELLA TYPHIMURIUM, Strain/Indicator: TA98, Metabolic Activation: RAT, LIVER, S-9, PHENOBARBITAL AND BETA-NAPHTHOFLAVONE, Method: STANDARD PLATE) “inactive; negative”; (Test System: AMES SALMONELLA TYPHIMURIUM, Strain/Indicator: TA100, Metabolic Activation: NONE, Method: PREINCUBATION) “inactive; negative”; (Test System: AMES SALMONELLA TYPHIMURIUM, Strain/Indicator: TA100, Metabolic Activation: NONE, Method: STANDARD PLATE) “inactive; negative”; (Test System: AMES SALMONELLA TYPHIMURIUM, Strain/Indicator: TA100, Metabolic Activation: RAT, LIVER, S-9, PHENOBARBITAL AND BETA-NAPHTHOFLAVONE, Method: PREINCUBATION) “inactive; negative”; (Test System: AMES SALMONELLA TYPHIMURIUM, Strain/Indicator: TA100, Metabolic Activation: RAT, LIVER, S-9, PHENOBARBITAL AND BETA-NAPHTHOFLAVONE, Method: STANDARD PLATE) “inactive; negative”. Besides, the mutagenic call (Test System: AMES SALMONELLA TYPHIMURIUM, Strain/Indicator: TA102, Metabolic Activation: NONE, Method: PREINCUBATION) is “inactive; negative”; the mutagenic call (Test System: AMES SALMONELLA TYPHIMURIUM, Strain/Indicator: TA102, Metabolic Activation: NONE, Method: STANDARD PLATE) is “inactive; negative”; the mutagenic call (Test System: AMES SALMONELLA TYPHIMURIUM, Strain/Indicator: TA102, Metabolic Activation: RAT, LIVER, S-9, PHENOBARBITAL AND BETA-NAPHTHOFLAVONE, Method: PREINCUBATION) was “inactive; negative”; the mutagenic call (Test System: AMES SALMONELLA TYPHIMURIUM, Strain/Indicator: TA102, Metabolic Activation: RAT, LIVER, S-9, PHENOBARBITAL AND BETA-NAPHTHOFLAVONE, Method: STANDARD PLATE) was “inactive; negative”; the mutagenic call (Test System: AMES SALMONELLA TYPHIMURIUM, Strain/Indicator: TA1535, Metabolic Activation: NONE, Method: PREINCUBATION) was “inactive; negative”; the mutagenic call (Test System: AMES SALMONELLA TYPHIMURIUM, Strain/Indicator: TA1535, Metabolic Activation: NONE, Method: STANDARD PLATE) was “inactive; negative”. In addition, the mutagenic call (Test System: AMES SALMONELLA TYPHIMURIUM, Strain/Indicator: TA1535, Metabolic Activation: RAT, LIVER, S-9, PHENOBARBITAL AND BETA-NAPHTHOFLAVONE, Method: PREINCUBATION) was “inactive; negative”; the mutagenic call (Test System: AMES SALMONELLA TYPHIMURIUM, Strain/Indicator: TA1535, Metabolic Activation: RAT, LIVER, S-9, PHENOBARBITAL AND BETA-NAPHTHOFLAVONE, Method: STANDARD PLATE) was “inactive; negative”; the mutagenic call (Test System: AMES SALMONELLA TYPHIMURIUM, Strain/Indicator: TA1537, Metabolic Activation: NONE, Method: PREINCUBATION) was “inactive; negative”; the mutagenic call (Test System: AMES SALMONELLA TYPHIMURIUM, Strain/Indicator: TA1537, Metabolic Activation: NONE, Method: STANDARD PLATE) is “inactive; negative”; the mutagenic call (Test System: AMES SALMONELLA TYPHIMURIUM, Strain/Indicator: TA1537, Metabolic Activation: RAT, LIVER, S-9, PHENOBARBITAL AND BETA-NAPHTHOFLAVONE, Method: PREINCUBATION) is “inactive; negative”; the mutagenic call (Test System: AMES SALMONELLA TYPHIMURIUM, Strain/Indicator: TA1537, Metabolic Activation: RAT, LIVER, S-9, PHENOBARBITAL AND BETA-NAPHTHOFLAVONE, Method: STANDARD PLATE) was “inactive; negative”. Also, the mutagenic call by setting is: (Test System: AMES SALMONELLA TYPHIMURIUM, Strain/Indicator: TA1538, Metabolic Activation: NONE, Method: PREINCUBATION) “inactive; negative”; (Test System: AMES SALMONELLA TYPHIMURIUM, Strain/Indicator: TA1538, Metabolic Activation: NONE, Method: STANDARD PLATE) “inactive; negative”; (Test System: AMES SALMONELLA TYPHIMURIUM, Strain/Indicator: TA1538, Metabolic Activation: RAT, LIVER, S-9, PHENOBARBITAL AND BETA-NAPHTHOFLAVONE, Method: PREINCUBATION) “inactive; negative”; (Test System: AMES SALMONELLA TYPHIMURIUM, Strain/Indicator: TA1538, Metabolic Activation: RAT, LIVER, S-9, PHENOBARBITAL AND BETA-NAPHTHOFLAVONE, Method: STANDARD PLATE) “inactive; negative”; (Test System: CHINESE HAMSTER V-79, Strain/Indicator: V-79 (HPRT)/6-THIOGUANINE, Metabolic Activation: NONE) “inactive; negative”; (Test System: CHINESE HAMSTER V-79, Strain/Indicator: V-79 (HPRT)/6-THIOGUANINE, Metabolic Activation: RAT, LIVER, S-9, AROCLOR 1254) “inactive; negative”. In addition, where the note is “Test System: UDS RAT HEPATOCYTES, Strain/Indicator: THY INCORP, Metabolic Activation: NONE, Method: AUTORADIOGRAPHY”, the mutagenic call is “inactive; negative”.
